Source: US12492173B2, “Herbicidal substituted N-tetrazolyl aryl carboxamides” (Bayer Aktiengesellschaft, priority 2019, dated 2025)

Experiments:
Type in all cases: in vivo
Echinochloa crus-galli [1] = test: Post-emergence herbicidal action, ECHCG; parameters: key: % herbicidal action vs untreated; 100 = plants died, 0 = like control; conditions: post-emergence, dosage 80 g/ha
Outline: (§1)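 Treatment: post-emergence spray, one-leaf stage. Medium: sandy loam, greenhouse. Carrier: 600–800 l/ha water, 0.2% wetting agent. Read-out: visual % activity at ~3 weeks, untreated plants as reference.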

Viola tricolor [2] = test: Pre-emergence herbicidal action, VIOTR; parameters: key to Herbicidal action against VIOTR: % activity: 100 = plants have died, 0 = like control plants
Outline: (§2)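 Herbicidal activity is expressed in percent, scored by eye after a 3-week greenhouse period, with 0% matching untreated plants and 100% meaning death. Compounds, as wettable powders or emulsion concentrates, are applied pre-emergence to the covering soil.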

Setaria viridis [3] = test: Post-emergence herbicidal action, SETVI; parameters: key: % herbicidal action vs untreated; 100 = plants died, 0 = like control; conditions: post-emergence
Outline: as §1

Pharbitis purpurea [4] = test: Post-emergence herbicidal action, PHBPU; conditions: post-emergence, dosage 80 g/ha
Outline: as §1

Amaranthus retroflexus [5] = test: Pre-emergence herbicidal action, AMARE; parameters: key to Herbicidal action against AMARE: % activity: 100 = plants have died, 0 = like control plants; conditions: for Herbicidal action against AMARE: comparative experiment
Outline: as §2

Echinochloa crus-galli [6] = test: Pre-emergence herbicidal action, ECHCG; conditions: for pest or weed control at 20 g/ha: 20 g of a.i./ha
Outline: as §2

Setaria viridis [7] = test: Pre-emergence herbicidal action, SETVI; parameters: key to Herbicidal action against SETVI: % activity: 100 = plants have died, 0 = like control plants
Description: (§3) 1. Pre-Emergence Herbicidal Action Against Harmful Plants Seeds of monocotyledonous and dicotyledonous weed plants and crop plants are laid out in sandy loam soil in wood-fiber pots and covered with soil. The compounds of the invention, formulated in the form of wettable powders (WP) or as emulsion concentrates (EC), are then applied to the surface of the covering soil in the form of an aqueous suspension or emulsion at a water application rate equating to 600 to 800 l/ha, with addition of 0.2% wetting agent. After the treatment, the pots are placed in a greenhouse and kept under good growth conditions for the trial plants. The damage to the test plants is scored visually after a test period of 3 weeks by comparison with untreated controls (herbicidal activity in percent (%): 100% activity=the plants have died, 0% activity=like control plants). […] The tables below illustrate, in an exemplary manner, the […] herbicidal action of the compounds according to the invention, the herbicidal activity being stated in percent. [table] In the experiments that follow, herbicidal action of numerous inventive compounds and the known compounds that are structurally closest from D1 (WO 2012/028579 A1) and D2 (WO 2018/202535 A1) were compared under the above-specified conditions by the pre-emergence and post-emergence method. The example numbers given in the tables relate to the compounds disclosed in the respective documents. In addition to the compounds disclosed in D1 and D2, the following compounds V-1 to V-14 that are encompassed by D1 or D2 but are not compounds specified therein were used in the comparative experiments: • V-1: 2-(methylsulfanyl)-3-(methylsulfinyl)-N-(1-methyl-1H-tetrazol-5-yl)-4-(trifluoromethyl)benzamide • V-2: 2-(methylsulfanyl)-3-(methylsulfonyl)-N-(1-methyl-1H-tetrazol-5-yl)-4-(trifluoromethyl)benzamide • V-3: 2,3-bis(ethylsulfanyl)-N-(1-methyl-1H-tetrazol-5-yl)-4-(trifluoromethyl)benzamide • V-4: 2-chloro-3-(ethylsulfanyl)-N-(1-methyl-1H-tetrazol-5-yl)-4-(trifluoromethyl)benzamide • V-5: 2-chloro-4-iodo-3-(methylsulfanyl)-N-(1-methyl-1H-tetrazol-5-yl)benzamide • V-6: 2-chloro-4-iodo-3-(methylsulfinyl)-N-(1-methyl-1H-tetrazol-5-yl)benzamide • V-7: 2-chloro-4-iodo-3-(methylsulfonyl)-N-(1-methyl-1H-tetrazol-5-yl)benzamide • V-8: 2-bromo-3-(methylsulfanyl)-N-(1-methyl-1H-tetrazol-5-yl)-4-(trifluoromethyl)benzamide • V-9: 2-bromo-3-(methylsulfinyl)-N-(1-methyl-1H-tetrazol-5-yl)-4-(trifluoromethyl)benzamide • V-10: 2-bromo-3-(methylsulfonyl)-N-(1-methyl-1H-tetrazol-5-yl)-4-(trifluoromethyl)benzamide • V-11: 2-bromo-3-(ethylsulfanyl)-N-(1-methyl-1H-tetrazol-5-yl)-4-(trifluoromethyl)benzamide • V-12: 2-bromo-3-(ethylsulfinyl)-N-(1-methyl-1H-tetrazol-5-yl)-4-(trifluoromethyl)benzamide • V-13: 2-bromo-3-(ethylsulfonyl)-N-(1-methyl-1-1H-tetrazol-5-yl)-4-(trifluoromethyl)benzamide • V-14: 2-cyclopropyl-3-(ethylsulfanyl)-N-(1-methyl-1H-tetrazol-5-yl)-4-(trifluoromethyl)benzamide Herbicidal Pre-Emergence Action: […]

Stellaria media [8] = test: Pre-emergence herbicidal action, STEME; conditions: dosage 320 g/ha, scored visually after 3 weeks vs untreated controls (100% = plants have died)
Outline: as §2

Abutilon theophrasti [9] = test: Pre-emergence herbicidal action, ABUTH; parameters: key to Herbicidal action against ABUTH: % activity: 100 = plants have died, 0 = like control plants; conditions: for Herbicidal action against ABUTH: comparative experiment
Outline: as §2

Polygonum convolvulus [10] = test: Pre-emergence herbicidal action, POLCO; conditions: for Herbicidal action against POLCO: comparative experiment, 20 g of a.i./ha
Description: as §3

Abutilon theophrasti [11] = test: Post-emergence herbicidal action, ABUTH; parameters: key: % herbicidal action vs untreated; 100 = plants died, 0 = like control; conditions: post-emergence
Outline: as §1

Matricaria inodora [12] = test: Pre-emergence herbicidal action, MATIN; conditions: dosage 320 g/ha, scored visually after 3 weeks vs untreated controls (100% = plants have died)
Outline: as §2

Matricaria inodora [13] = test: Post-emergence herbicidal action, MATIN; parameters: key: % herbicidal action vs untreated; 100 = plants died, 0 = like control; conditions: post-emergence, dosage 80 g/ha
Outline: as §1

Amaranthus retroflexus [14] = test: Post-emergence herbicidal action, AMARE; parameters: key: % herbicidal action vs untreated; 100 = plants died, 0 = like control; conditions: post-emergence, dosage 80 g/ha
Outline: as §1

Hordeum murinum = test: Pre-emergence herbicidal action, HORMU; conditions: dosage 320 g/ha, scored visually after 3 weeks vs untreated controls (100% = plants have died)
Description: as §3

Cyperus esculentus = test: Pre-emergence herbicidal action, CYPES; parameters: key: % activity: 100 = plants have died, 0 = like control plants; conditions: comparative experiment
Description: as §3

Pharbitis purpurea [15] = test: Pre-emergence herbicidal action, PHBPU; conditions: comparative experiment, 20 g of a.i./ha
Description: as §3

Polygonum convolvulus [16] = test: Post-emergence herbicidal action, POLCO; conditions: comparative experiment, post-emergence, 5 g of a.i./ha
Protocol: (§4) [table] 2. Post-Emergence Herbicidal Action Against Harmful Plants Seeds of monocotyledonous and dicotyledonous weed and crop plants are laid out in sandy loam soil in wood-fiber pots, covered with soil and cultivated in a greenhouse under good growth conditions. 2 to 3 weeks after sowing, the test plants are treated at the one-leaf stage. The compounds of the invention, formulated in the form of wettable powders (WP) or as emulsion concentrates (EC), are then sprayed onto the green parts of the plants in the form of an aqueous suspension or emulsion at a water application rate equating to 600 to 800 l/ha, with addition of 0.2% wetting agent. After the test plants have been left to stand in the greenhouse under optimal growth conditions for about 3 weeks, the action of the preparations is assessed visually in comparison to untreated controls (herbicidal action in percent (%): 100% activity=the plants have died, 0% activity=like control plants). […] The tables below illustrate, in an exemplary manner, the post-emergence herbicidal action of the compounds according to the invention, the herbicidal activity being stated in percent. In the experiments that follow, herbicidal action of numerous inventive compounds and the known compounds that are structurally closest from D1 (WO 2012/028579 A1) and D2 (WO 2018/202535 A1) were compared under the above-specified conditions by the pre-emergence and post-emergence method. The example numbers given in the tables relate to the compounds disclosed in the respective documents. In addition to the compounds disclosed in D1 and D2, the following compounds V-1 to V-14 that are encompassed by D1 or D2 but are not compounds specified therein were used in the comparative experiments: • V-1: 2-(methylsulfanyl)-3-(methylsulfinyl)-N-(1-methyl-1H-tetrazol-5-yl)-4-(trifluoromethyl)benzamide • V-2: 2-(methylsulfanyl)-3-(methylsulfonyl)-N-(1-methyl-1H-tetrazol-5-yl)-4-(trifluoromethyl)benzamide • V-3: 2,3-bis(ethylsulfanyl)-N-(1-methyl-1H-tetrazol-5-yl)-4-(trifluoromethyl)benzamide • V-4: 2-chloro-3-(ethylsulfanyl)-N-(1-methyl-1H-tetrazol-5-yl)-4-(trifluoromethyl)benzamide • V-5: 2-chloro-4-iodo-3-(methylsulfanyl)-N-(1-methyl-1H-tetrazol-5-yl)benzamide • V-6: 2-chloro-4-iodo-3-(methylsulfinyl)-N-(1-methyl-1H-tetrazol-5-yl)benzamide • V-7: 2-chloro-4-iodo-3-(methylsulfonyl)-N-(1-methyl-1H-tetrazol-5-yl)benzamide • V-8: 2-bromo-3-(methylsulfanyl)-N-(1-methyl-1H-tetrazol-5-yl)-4-(trifluoromethyl)benzamide • V-9: 2-bromo-3-(methylsulfinyl)-N-(1-methyl-1H-tetrazol-5-yl)-4-(trifluoromethyl)benzamide • V-10: 2-bromo-3-(methylsulfonyl)-N-(1-methyl-1H-tetrazol-5-yl)-4-(trifluoromethyl)benzamide • V-11: 2-bromo-3-(ethylsulfanyl)-N-(1-methyl-1H-tetrazol-5-yl)-4-(trifluoromethyl)benzamide • V-12: 2-bromo-3-(ethylsulfinyl)-N-(1-methyl-1H-tetrazol-5-yl)-4-(trifluoromethyl)benzamide • V-13: 2-bromo-3-(ethylsulfonyl)-N-(1-methyl-1-1H-tetrazol-5-yl)-4-(trifluoromethyl)benzamide • V-14: 2-cyclopropyl-3-(ethylsulfanyl)-N-(1-methyl-1H-tetrazol-5-yl)-4-(trifluoromethyl)benzamide Herbicidal Pre-Emergence Action: […]

Stellaria media [17] = test: Post-emergence herbicidal action, STEME; parameters: key: % herbicidal action vs untreated; 100 = plants died, 0 = like control; conditions: comparative experiment, post-emergence, 20 g of a.i./ha
Outline: as §1

Veronica persica [18] = test: Pre-emergence herbicidal action, VERPE; parameters: key to Herbicidal action against VERPE: % activity: 100 = plants have died, 0 = like control plants; conditions: comparative experiment, 80 g of a.i./ha
Outline: as §2

Avena fatua = test: Post-emergence herbicidal action, AVEFA; parameters: key: % herbicidal action vs untreated; 100 = plants died, 0 = like control; conditions: comparative experiment, post-emergence, 20 g of a.i./ha
Protocol: as §4

Alopecurus myosuroides = test: Post-emergence herbicidal action, ALOMY; parameters: key: % herbicidal action vs untreated; 100 = plants died, 0 = like control; conditions: comparative experiment, post-emergence, 20 g of a.i./ha
Protocol: as §4

Viola tricolor [19] = test: Post-emergence herbicidal action, VIOTR; parameters: key: % herbicidal action vs untreated; 100 = plants died, 0 = like control; conditions: comparative experiment, post-emergence, 20 g of a.i./ha
Outline: as §1

Veronica persica [20] = test: Post-emergence herbicidal action, VERPE; parameters: key: % herbicidal action vs untreated; 100 = plants died, 0 = like control; conditions: comparative experiment, post-emergence, 20 g of a.i./ha
Outline: as §1

[21] = dosage 320 g/ha, scored visually after 3 weeks vs untreated controls (100% = plants have died)
[22] = Echinochloa crus-galli, 504 h, comparative experiment, read-out: Herbicidal action against ECHCG
[23] = comparative experiment, 80 g of a.i./ha
[24] = comparative experiment, 20 g of a.i./ha

CCn1nnnc1NC(=O)c1ccc(I)c(CSC)c1Cl [Example 2-362]
Herbicidal action against ECHCG (Echinochloa crus-galli [1]): 100 | herbicidal activity VIOTR (Viola tricolor [2]; [21]): 100% | Herbicidal action against SETVI (Setaria viridis [3]; dosage 80 g/ha): 90 | Herbicidal action against PHBPU (Pharbitis purpurea [4]): 90 | herbicidal activity AMARE (Amaranthus retroflexus [5]; [21]): 100% | herbicidal activity ECHCG (Echinochloa crus-galli [6]; [21]): 100% | herbicidal activity SETVI (Setaria viridis [7]; [21]): 100% | herbicidal activity STEME (Stellaria media [8]): 100% | herbicidal activity ABUTH (Abutilon theophrasti [9]; [21]): 100% | herbicidal activity POLCO (Polygonum convolvulus [10]; [21]): 100% | Herbicidal action against ABUTH (Abutilon theophrasti [11]; dosage 80 g/ha): 90 | herbicidal activity MATIN (Matricaria inodora [12]): 100% | Herbicidal action against MATIN (Matricaria inodora [13]): 100 | Herbicidal action against AMARE (Amaranthus retroflexus [14]): 100 | herbicidal activity HORMU (Hordeum murinum): 90%

CSc1c(C(=O)Nc2nnnn2C)ccc(C(F)(F)F)c1[S+](C)[O-] (stereo not shown) [Example V-1, 2-(methylsulfanyl)-3-(methylsulfinyl)-N-(1-methyl-1H-tetrazol-5-yl)-4-(trifluoromethyl)benzamide, reference compound]
Herbicidal action against CYPES (Cyperus esculentus; 20 g of a.i./ha): 50 | Herbicidal action against AMARE (Amaranthus retroflexus [5]; 20 g of a.i./ha): 60 | pest or weed control at 20 g/ha (Echinochloa crus-galli [6]; [22]): 50% | Herbicidal action against PHBPU (Pharbitis purpurea [15]): 0 | Herbicidal action against ABUTH (Abutilon theophrasti [9]; 20 g of a.i./ha): 0 | Herbicidal action against POLCO (Polygonum convolvulus [10]): 0

CSc1c(C(=O)Nc2nnnn2C)ccc(C(F)(F)F)c1S(C)(=O)=O [Example V-2, 2-(methylsulfanyl)-3-(methylsulfonyl)-N-(1-methyl-1H-tetrazol-5-yl)-4-(trifluoromethyl)benzamide, reference compound]
Herbicidal action against CYPES (Cyperus esculentus; 20 g of a.i./ha): 0 | pest or weed control at 20 g/ha (Echinochloa crus-galli [6]; [22]): 50% | Herbicidal action against POLCO (Polygonum convolvulus [10]): 0 | Herbicidal action against POLCO (Polygonum convolvulus [16]): 0

CSc1c(C(F)(F)F)ccc(C(=O)Nc2nnnn2C)c1Br [Example V-8, 2-bromo-3-(methylsulfanyl)-N-(1-methyl-1H-tetrazol-5-yl)-4-(trifluoromethyl)benzamide, reference compound]
Herbicidal action against CYPES (Cyperus esculentus; 20 g of a.i./ha): 0

CCSc1c(C(F)(F)F)ccc(C(=O)Nc2nnnn2C)c1Br [Example V-11, 2-bromo-3-(ethylsulfanyl)-N-(1-methyl-1H-tetrazol-5-yl)-4-(trifluoromethyl)benzamide, reference compound]
Herbicidal action against STEME (Stellaria media [17]): 0 | Herbicidal action against VERPE (Veronica persica [18]): 10 | Herbicidal action against CYPES (Cyperus esculentus; 80 g of a.i./ha): 0 | Herbicidal action against VIOTR (Viola tricolor [2]; [23]): 80 | Herbicidal action against AVEFA (Avena fatua): 0 | Herbicidal action against SETVI (Setaria viridis [3]; [24]): 0 | Herbicidal action against AMARE (Amaranthus retroflexus [5]; 80 g of a.i./ha): 0 | pest or weed control at 80 g/ha (Echinochloa crus-galli [6]; Echinochloa crus-galli, 504 h, comparative experiment, 80 g of a.i./ha, read-out: Herbicidal action against ECHCG): 0% | Herbicidal action against SETVI (Setaria viridis [7]; [23]): 0 | Herbicidal action against ABUTH (Abutilon theophrasti [9]; 80 g of a.i./ha): 0 | Herbicidal action against ALOMY (Alopecurus myosuroides): 0 | Herbicidal action against ABUTH (Abutilon theophrasti [11]; [24]): 0 | Herbicidal action against VIOTR (Viola tricolor [19]): 20 | Herbicidal action against VERPE (Veronica persica [20]): 40
